US20230348917A1, “EXPRESSION VECTOR FOR USE IN METHANOTROPH” (priority 2020, published 2023)

Tests used:
[1] = test system: M. capsulatus Bath; assay: Toxicity test of isoprene and epoxy isoprene (growth assay); type: cell-based, Methylococcus capsulatus Bath; conditions: various concentrations of isoprene, or 1.35 and 13.5 mg/L epoxyisoprene; for growth of the strain expressing sMMO: absence of copper; for growth of the cells expressing pMMO: presence of copper
Description: To analyze the toxicity of isoprene and epoxyisoprene using wild-type strains, 2 mL cultures were transferred to 150 mL serum bottle containing 19 ml NMS medium with or without 10 μM CuCl2. After incubation for 6.5 to 7.5 hours, an appropriate amount of isoprene or epoxy isoprene (2-methyl-2-vinyloxirane) diluted in dodecane was added. The bottle was sealed, 50% of the headspace was replaced with methane, and the bottle was further incubated. Sampling of 1 mL cultures for cell density measurement was performed at appropriate time intervals using a disposable syringe without reopening the bottle.
To examine the potential toxicity of isoprene produced in M. capsulatus Bath, growth assays were performed in the presence of various concentrations of isoprene while regulating the expression of sMMO and pMMO enzymes by controlling the addition of copper.
In addition, in order to examine whether the growth inhibition of the strain was due to the oxidation of isoprene by sMMO, the strain growth was analyzed in the presence of 1.35 and 13.5 mg/L of epoxyisoprene, an oxidation product of isoprene. As a result, it was confirmed that the growth of both the sMMO-expressing strain and the pMMO-expressing strain were reduced depending on the concentration of the epoxy isoprene treated above ((d) and (e) in FIG. 17).

[2] = test system: dTomato expression in M. trichosporium OB3b; assay: dTomato expression by fluorescence (microplate reader, FACS) in transconjugated M. trichosporium OB3b; type: cell-based, Methylosinus trichosporium OB3b; conditions: pAWP89S-Ptet-dTomato plasmid; aTc induction
Description: For analysis of the expression level by fluorescence, 200 μl was sampled in a 96-well plate and a Tecan microplate reader (excitation: 535 nm, emission: 590 nm) was used. FACS analysis was performed using BD Biosciences FACSCalibur equipment (excitation: 488 nm, emission: 585 nm).
M. trichosporium OB3b transconjugated with the pAWP89S-Ptet-dTomato plasmid was treated with anhydrotetracycline (aTc) at 0 μM, 0.5 μM, 1 μM, or 2 μM, respectively, to induce expression, and the expression of the fluorescent protein dTomato was examined for 8 days. The experiment was performed by the method of Experimental Example 3 above.

[3] = test system: M. capsulatus Bath with the pAWP89S-Po-dTomato plasmid; conditions: 0.5 mM benzene, 24 hours
Description: It was confirmed whether dTomato could be induced with benzene under sMMO expression conditions (copper-deficient medium).
The M. capsulatus Bath with the pAWP89S-Po-dTomato plasmid were cultured under sMMO expression condition (copper-deficient medium) and pMMO expression condition (copper-containing medium) while supplying 0.5 mM benzene for 24 hours. A strain supplied with 10 μM of phenol was used as a control group.

[4] = test system: M. capsulatus Bath; conditions: pAWP89S-Po-dTomato strain; 100 μM phenol compared with 10 μM phenol
Description: (§1) The transconjugated M. capsulatus Bath and M. trichosporium OB3b were inoculated by 10% in NMS medium containing 25 μg/ml kanamycin and 10 μM CuCl2. For the methanotrophs transconjugated with the pAWP89S-Po-dTomato, 10 μM of phenol was contained in the medium. After sealing, 50% methane gas was substituted in the headspace. The recombinant M. capsulatus Bath was cultured at 37° C. for 24 hours or 44 to 48 hours, and therecombinant M. trichosporium OB3b was cultured at 30° C.

[5] = test system: dTomato expression in M. capsulatus Bath; assay: dTomato expression by fluorescence in transconjugated M. capsulatus Bath; type: cell-based, Methylococcus capsulatus Bath; conditions: pAWP89S-Po-dTomato plasmid; 10 μM phenol
Description: as §1

`C=CC1(C)CO1` (stereo not shown) [epoxyisoprene, 2-methyl-2-vinyloxirane] was tested, and the “growth of the strain expressing sMMO” value [1] was “reduced” and the “growth of the cells expressing pMMO” value [1] was “reduced”.
For `Cc1c2c(c(O)c3c(O)cccc13)C(=O)[C@]1(O)C(=O)C(C(N)=O)=C(O)[C@@H](N(C)C)[C@@H]1C2` [aTc, anhydrotetracycline], the “FACS distribution of dTomato fluorescence of individual cells” value [2] was “two peaks were formed” and the “time required for expression to be most active” value [2] was “about 8 days”.
For `C=CC(=C)C` [isoprene], the “growth of the strain expressing sMMO” value [1] was “reduced” and the “growth of the cells expressing pMMO” value [1] was “unaffected”.
`c1ccccc1` [benzene] was tested, and the “dTomato expression (fluorescence value)” value ([3]; pMMO expression condition (copper-containing medium)) was “relatively small fluorescence value” and the dTomato expression ([3]; sMMO expression condition (copper-deficient medium)) was “highly induced”.
For `Oc1ccccc1` [phenol], the strain growth [4] was “inhibited” and the “time after phenol supply at which fluorescence due to dTomato expression was observed” value [5] was 5 h.
